Experimental data from PubChem BioAssay (NCI).
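1) Cells in 96-well plates. 2) Compound, 48 h, 5 concentrations. 3) Linear interpolation between surrounding doses. 4) Unreached endpoint = highest concentration. Here, GI50 denotes the concentration required for 50% inhibition of growth. At the TGI there is no net growth.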

What was measured:
Assay in all cases: DTP human tumour cell line panel, 48 h
NCI-H226 lung = tested on: NCI-H226 lung
OVCAR-5 ovarian = tested on: OVCAR-5 ovarian
LOX IMVI melanoma = tested on: LOX IMVI melanoma
MOLT-4 leukemia = tested on: MOLT-4 leukemia
OVCAR-3 ovarian = tested on: OVCAR-3 ovarian
HCC-2998 colon = tested on: HCC-2998 colon
DU-145 prostate = tested on: DU-145 prostate
SF-268 CNS = tested on: SF-268 CNS
786-0 renal = tested on: 786-0 renal
SNB-19 CNS = tested on: SNB-19 CNS
MALME-3M melanoma = tested on: MALME-3M melanoma
SK-MEL-28 melanoma = tested on: SK-MEL-28 melanoma
SF-295 CNS = tested on: SF-295 CNS
A498 renal = tested on: A498 renal
CAKI-1 renal = tested on: CAKI-1 renal
ACHN renal = tested on: ACHN renal
MDA-MB-231 breast = tested on: MDA-MB-231 breast
EKVX NSCLC = tested on: EKVX NSCLC
SN12C renal = tested on: SN12C renal
A549 NSCLC = tested on: A549 NSCLC
SK-MEL-5 melanoma = tested on: SK-MEL-5 melanoma
SR leukemia = tested on: SR leukemia
RPMI-8226 leukemia = tested on: RPMI-8226 leukemia
UACC-257 melanoma = tested on: UACC-257 melanoma
OVCAR-8 ovarian = tested on: OVCAR-8 ovarian
HOP-92 NSCLC = tested on: HOP-92 NSCLC
HL-60(TB) leukemia = tested on: HL-60(TB) leukemia
PC-3 prostate = tested on: PC-3 prostate
U251 CNS = tested on: U251 CNS
SF-539 CNS = tested on: SF-539 CNS
M14 melanoma = tested on: M14 melanoma
NCI/ADR-RES ovarian = tested on: NCI/ADR-RES ovarian
SK-OV-3 ovarian = tested on: SK-OV-3 ovarian
HS 578T breast = tested on: HS 578T breast
CCRF-CEM leukemia = tested on: CCRF-CEM leukemia
BT-549 breast = tested on: BT-549 breast
MCF7 breast = tested on: MCF7 breast
OVCAR-4 ovarian = tested on: OVCAR-4 ovarian
KM12 colon = tested on: KM12 colon
SK-MEL-2 melanoma = tested on: SK-MEL-2 melanoma
UACC-62 melanoma = tested on: UACC-62 melanoma
TK-10 renal = tested on: TK-10 renal
NCI-H522 lung = tested on: NCI-H522 lung
UO-31 renal = tested on: UO-31 renal
SNB-75 CNS = tested on: SNB-75 CNS
HCT-116 colon = tested on: HCT-116 colon
NCI-H23 lung = tested on: NCI-H23 lung

Cc1cc2cn3c4ccc(O)cc4nc(N)c3c2cc1C
GI50 (NCI-H226 lung): 502 nM
TGI (NCI-H226 lung): 19200 nM
GI50 (OVCAR-5 ovarian): 1110 nM
TGI (OVCAR-5 ovarian): 11500 nM
GI50 (LOX IMVI melanoma): < 10 nM
TGI (LOX IMVI melanoma): 1580 nM
GI50 (MOLT-4 leukemia): 82.8 nM
TGI (MOLT-4 leukemia): 2480 nM
GI50 (OVCAR-3 ovarian): < 17.6 nM
TGI (OVCAR-3 ovarian): 1700 nM
GI50 (HCC-2998 colon): 539 nM
TGI (HCC-2998 colon): 3780 nM
GI50 (DU-145 prostate): 53.5 nM
TGI (DU-145 prostate): 1630 nM
GI50 (SF-268 CNS): 197 nM
TGI (SF-268 CNS): 5420 nM
GI50 (786-0 renal): 54.1 nM
TGI (786-0 renal): 1700 nM
GI50 (SNB-19 CNS): 146 nM
TGI (SNB-19 CNS): 18600 nM
GI50 (MALME-3M melanoma): 2180 nM
TGI (MALME-3M melanoma): 26700 nM
GI50 (SK-MEL-28 melanoma): 96.1 nM
TGI (SK-MEL-28 melanoma): 2100 nM
GI50 (SF-295 CNS): 150 nM
TGI (SF-295 CNS): 1280 nM
GI50 (A498 renal): 289 nM
TGI (A498 renal): 22700 nM
GI50 (CAKI-1 renal): 176 nM
TGI (CAKI-1 renal): 5130 nM
GI50 (ACHN renal): < 30.7 nM
TGI (ACHN renal): 1880 nM
GI50 (MDA-MB-231 breast): 350 nM
TGI (MDA-MB-231 breast): 1690 nM
GI50 (EKVX NSCLC): 794 nM
TGI (EKVX NSCLC): 20300 nM
GI50 (SN12C renal): 172 nM
TGI (SN12C renal): 1890 nM
GI50 (A549 NSCLC): 132 nM
TGI (A549 NSCLC): 1460 nM
GI50 (SK-MEL-5 melanoma): < 10 nM
TGI (SK-MEL-5 melanoma): 137 nM
GI50 (SR leukemia): < 28.4 nM
TGI (SR leukemia): 1740 nM
GI50 (RPMI-8226 leukemia): 71.3 nM
TGI (RPMI-8226 leukemia): 2010 nM
GI50 (UACC-257 melanoma): 1110 nM
TGI (UACC-257 melanoma): 3080 nM
GI50 (OVCAR-8 ovarian): 180 nM
TGI (OVCAR-8 ovarian): 1490 nM
GI50 (HOP-92 NSCLC): 4890 nM
TGI (HOP-92 NSCLC): 22300 nM
GI50 (HL-60(TB) leukemia): 33.1 nM
TGI (HL-60(TB) leukemia): 1210 nM
GI50 (PC-3 prostate): 127 nM
TGI (PC-3 prostate): 5850 nM
GI50 (U251 CNS): < 10 nM
TGI (U251 CNS): 1390 nM
GI50 (SF-539 CNS): 221 nM
TGI (SF-539 CNS): 1050 nM
GI50 (M14 melanoma): < 19.2 nM
TGI (M14 melanoma): 1180 nM
GI50 (NCI/ADR-RES ovarian): < 20.4 nM
TGI (NCI/ADR-RES ovarian): 498 nM
GI50 (SK-OV-3 ovarian): 233 nM
TGI (SK-OV-3 ovarian): 5000 nM
GI50 (HS 578T breast): 170 nM
TGI (HS 578T breast): 11000 nM
GI50 (CCRF-CEM leukemia): 16.3 nM
TGI (CCRF-CEM leukemia): 2130 nM
GI50 (BT-549 breast): 2220 nM
TGI (BT-549 breast): 20400 nM
GI50 (MCF7 breast): 429 nM
TGI (MCF7 breast): 1760 nM
GI50 (OVCAR-4 ovarian): 1490 nM
TGI (OVCAR-4 ovarian): 14400 nM
GI50 (KM12 colon): < 10 nM
TGI (KM12 colon): 2450 nM
GI50 (SK-MEL-2 melanoma): < 10 nM
TGI (SK-MEL-2 melanoma): 1340 nM
GI50 (UACC-62 melanoma): < 10 nM
TGI (UACC-62 melanoma): 1310 nM
GI50 (TK-10 renal): 818 nM
TGI (TK-10 renal): 2760 nM
GI50 (NCI-H522 lung): 17.5 nM
TGI (NCI-H522 lung): 293 nM
GI50 (UO-31 renal): 227 nM
TGI (UO-31 renal): 3260 nM
GI50 (SNB-75 CNS): 211 nM
TGI (SNB-75 CNS): 9750 nM
GI50 (HCT-116 colon): < 10 nM
TGI (HCT-116 colon): 1320 nM
GI50 (NCI-H23 lung): 266 nM
TGI (NCI-H23 lung): 5090 nM
